In the NIST ThermoML archive (doi:10.1016/j.fluid.2011.11.016):
Numbers after ± are expanded uncertainties.

Experiment: xn = mol fraction of the nth substance listed
Conditions: 298.15 K, 101.3 kPa, Liquid, Vibrating tube method

CCCCCCC [heptane] + C1CCCCC1
mass density (x1 = 1): 679.57 ± 0.18 kg/m3

C1CCCCC1 [cyclohexane] + CCCCCCC
mass density (x2 = 0): 773.88 ± 0.13 kg/m3 | mass density (x2 = 0.0503): 766.95 ± 0.14 kg/m3 | mass density (x2 = 0.0991): 760.53 ± 0.14 kg/m3 | mass density (x2 = 0.2021): 748.16 ± 0.15 kg/m3 | mass density (x2 = 0.3118): 735.69 ± 0.15 kg/m3 | mass density (x2 = 0.3926): 726.61 ± 0.15 kg/m3 | mass density (x2 = 0.5039): 717.21 ± 0.16 kg/m3 | mass density (x2 = 0.666): 703.79 ± 0.17 kg/m3 | mass density (x2 = 0.7062): 700.61 ± 0.17 kg/m3 | mass density (x2 = 0.8061): 692.71 ± 0.17 kg/m3 | mass density (x2 = 0.9061): 685.62 ± 0.18 kg/m3 | mass density (x2 = 0.9539): 682.6 ± 0.18 kg/m3
